Data on 11 molecules can be found in PubChem BioAssay (NCI).

Some test systems named below: UACC-257 melanoma; MALME-3M melanoma; OVCAR-4 ovarian; A549 NSCLC; OVCAR-3 ovarian; LOX IMVI melanoma; SN12C renal; NCI-H23 lung; NCI-H460 lung; M14 melanoma.
What all share (assay): NCI-60 cell line screen, 48 h

The structures appear in SMILES notation. Where “and” joins values, the source holds several entries; their conditions need not be identical. Identical values can stand only once.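 Test compounds were applied to cells in 96-well plates for 48 hours at 5 doses. Here, GI50 denotes the concentration required for 50% inhibition of growth. The concentration for full growth arrest is given as TGI.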

For `COc1cc(C(=O)c2cnc(-c3c[nH]c4cccc(C)c34)[nH]2)cc(OC)c1OC`, the GI50 was 0.332 µM in the experiment with UACC-257 melanoma; 11.4 µM in the experiment with MALME-3M melanoma; 0.529 µM with OVCAR-4 ovarian; 0.0109 µM in the experiment on A549 NSCLC; 0.00332 µM with OVCAR-3 ovarian; 0.0151 µM in the experiment on LOX IMVI melanoma. Moreover, the GI50 in the experiment with SN12C renal was 0.00929 µM; in the experiment on NCI-H23 lung it was 0.0102 µM; in the experiment on NCI-H460 lung it was 0.00618 µM. For the same molecule, the TGI in the experiment with MALME-3M melanoma is over 100 µM; in the experiment with OVCAR-4 ovarian, over 100 µM; in the experiment with A549 NSCLC, over 100 µM; with OVCAR-3 ovarian, 0.0125 µM; in the experiment on LOX IMVI melanoma it was over 100 µM; in the experiment with SN12C renal it was over 100 µM. In addition, the TGI in the experiment with NCI-H23 lung was over 100 µM; in the experiment with NCI-H460 lung, 35.4 µM.
With `C=CCC(N[C@@H](CO)c1ccccc1)c1ccc2ccccc2n1` (some centres not stated), the GI50 with UACC-257 melanoma is 32.4 µM; in the experiment with MALME-3M melanoma it was 88.6 µM; with OVCAR-4 ovarian, over 100 µM; with A549 NSCLC, over 100 µM; in the experiment with M14 melanoma, over 100 µM; in the experiment on OVCAR-3 ovarian, 57.4 µM. Besides, the GI50 was over 100 µM in the experiment on LOX IMVI melanoma, 67.5 µM in the experiment with SN12C renal and over 100 µM in the experiment on NCI-H23 lung. Further, the TGI in the experiment on UACC-257 melanoma, in the experiment on MALME-3M melanoma, in the experiment with OVCAR-4 ovarian, in the experiment with A549 NSCLC, with M14 melanoma and with OVCAR-3 ovarian was over 100 µM in each case. Besides, the TGI in the experiment on LOX IMVI melanoma, in the experiment on SN12C renal and in the experiment on NCI-H23 lung was over 100 µM each time.
In the case of `CN(C)CCCN1c2ccccc2Sc2ccc(C(F)(F)F)cc21`, the GI50 was 1.62 µM with UACC-257 melanoma; 1.56 µM with MALME-3M melanoma; 1.97 µM in the experiment on OVCAR-4 ovarian; 1.89 µM in the experiment on A549 NSCLC; 1.57 µM in the experiment on LOX IMVI melanoma; 1.66 µM with SN12C renal. The GI50 with NCI-H23 lung is 1.72 µM; with NCI-H460 lung, 1.6 µM. The TGI with UACC-257 melanoma was 3.49 µM and 29.5 µM and 26.7 µM; in the experiment with MALME-3M melanoma it was 3.15 µM and 28.4 µM and 30.1 µM; in the experiment with OVCAR-4 ovarian it was 5.53 µM and 28 µM; in the experiment on A549 NSCLC, 3.83 µM and 31.9 µM and 31.4 µM; in the experiment on LOX IMVI melanoma, 2.98 µM and 28.9 µM and 29.7 µM; in the experiment with SN12C renal, 3.62 µM and 32.2 µM and 29.5 µM. Moreover, in the experiment with NCI-H23 lung, the TGI was 4.12 µM and 31.1 µM and 34.4 µM.
As for `Fc1ccccc1CN1COc2c(cc(Cl)c3cccnc23)C1`, the TGI stood at 8.73 µM in the experiment with UACC-257 melanoma; 12.2 µM in the experiment with MALME-3M melanoma; 4.88 µM in the experiment with OVCAR-4 ovarian; 10.9 µM in the experiment on A549 NSCLC; 12 µM in the experiment with M14 melanoma; 19.2 µM in the experiment with OVCAR-3 ovarian. For the same molecule, the TGI in the experiment on SN12C renal is 1.57 µM; in the experiment on NCI-H23 lung, 9.31 µM; with NCI-H460 lung, over 100 µM.
On to `O=C(/C=C/c1ccccc1)c1ccc(Cl)cc1Cl`, for which the TGI in the experiment on UACC-257 melanoma is 63.8 µM; in the experiment on MALME-3M melanoma it was 46.1 µM; with OVCAR-4 ovarian it was 46.1 µM; in the experiment on A549 NSCLC, 60.3 µM; in the experiment with M14 melanoma, 45.3 µM; in the experiment with OVCAR-3 ovarian it was 40.2 µM. Also, the TGI in the experiment with SN12C renal was determined as 57.7 µM; in the experiment with NCI-H23 lung it was 75.8 µM; with NCI-H460 lung, 33.4 µM.
For the molecule `FC(F)(F)c1ccccc1C1SCc2nc3ccccc3n21` (configuration not stated), the TGI with UACC-257 melanoma, in the experiment with MALME-3M melanoma, in the experiment on A549 NSCLC, with OVCAR-3 ovarian, with SN12C renal and in the experiment on NCI-H23 lung was over 100 µM throughout.
Regarding `N=C(N)c1ccc2oc3ccc(C(=N)N)cc3c(=O)c2c1`, the TGI in the experiment on UACC-257 melanoma, in the experiment with MALME-3M melanoma, in the experiment on OVCAR-4 ovarian, with A549 NSCLC, in the experiment with M14 melanoma and in the experiment with OVCAR-3 ovarian was over 100 µM throughout. Also, the TGI in the experiment with SN12C renal, with NCI-H23 lung and in the experiment with NCI-H460 lung was over 100 µM in each case.
In the case of `CCN(CC)CCOC(COc1cc(C)cc(C)c1)COc1cc(C)cc(C)c1`, the GI50 with UACC-257 melanoma was 4.89 µM; in the experiment on MALME-3M melanoma, 1.88 µM; with OVCAR-4 ovarian, 2.33 µM; in the experiment on A549 NSCLC, 4.56 µM; in the experiment on M14 melanoma it was 1.35 µM; in the experiment on OVCAR-3 ovarian it was 3.46 µM. For the same molecule, the GI50 was 1.31 µM with LOX IMVI melanoma, 2.62 µM with SN12C renal and 2.36 µM with NCI-H23 lung. Also, the TGI with UACC-257 melanoma was determined as 17.2 µM; in the experiment with MALME-3M melanoma, 3.86 µM; with OVCAR-4 ovarian, 13.7 µM; with A549 NSCLC it was 16.9 µM; in the experiment with M14 melanoma it was 3.06 µM; in the experiment with OVCAR-3 ovarian, 13 µM. Moreover, the TGI was 2.73 µM in the experiment on LOX IMVI melanoma, 15.6 µM in the experiment on SN12C renal and 14.7 µM in the experiment with NCI-H23 lung.
`COc1cc(-c2nc(-c3ccccc3)c(-c3ccccc3)[nH]2)cc(OC)c1O`: the GI50 was 21.7 µM in the experiment on UACC-257 melanoma; 18.8 µM in the experiment with MALME-3M melanoma; 17.6 µM in the experiment with OVCAR-4 ovarian; 19 µM with A549 NSCLC; 18.3 µM with OVCAR-3 ovarian; 17.2 µM with LOX IMVI melanoma. In addition, the values for the GI50 in the experiment with SN12C renal, in the experiment with NCI-H23 lung and in the experiment on NCI-H460 lung were 17.6 µM, 19 µM and 17.3 µM, respectively. Moreover, the TGI with UACC-257 melanoma was determined as 44.8 µM; in the experiment on MALME-3M melanoma, 40.3 µM; with OVCAR-4 ovarian, 56.8 µM; in the experiment on A549 NSCLC, 57 µM; in the experiment with OVCAR-3 ovarian, 34.2 µM; in the experiment with LOX IMVI melanoma, 32.6 µM. For the same molecule, the TGI with SN12C renal is 37.5 µM; with NCI-H23 lung, 38.7 µM; in the experiment with NCI-H460 lung it was 36.3 µM.
For `CC(C)(O)C1COC2=C1C(=O)c1ccccc1C2=O` (configuration not stated), the TGI is over 100 µM with UACC-257 melanoma; over 100 µM in the experiment with OVCAR-4 ovarian; over 100 µM in the experiment with A549 NSCLC; over 100 µM in the experiment on M14 melanoma; 57.8 µM with OVCAR-3 ovarian; 41.9 µM with LOX IMVI melanoma. Also, the TGI is 77.8 µM with SN12C renal, 38.8 µM in the experiment with NCI-H23 lung and over 100 µM in the experiment with NCI-H460 lung.
As to `O=C(N/C(=C\c1ccc([N+](=O)[O-])cc1)c1nc2ccccc2s1)c1ccccc1`, the TGI with UACC-257 melanoma is 85.2 µM; in the experiment with MALME-3M melanoma it was over 100 µM; in the experiment with OVCAR-4 ovarian it was 81.3 µM; with A549 NSCLC it was over 100 µM; in the experiment on M14 melanoma, 81.8 µM; with OVCAR-3 ovarian, over 100 µM. For the same molecule, the TGI with LOX IMVI melanoma was 46.5 µM; with SN12C renal it was 44.9 µM; in the experiment on NCI-H23 lung, 61.7 µM.
